Reference: US20070027033A1, “Anti-germination method of tubers or bulbs using eugenol and/or isoeugenol” (priority 2005, published 2007)

Test system: germination and nascent sprouts of potatoes
Test: Post-storage application to washed potatoes, in line or by immersion, compared with CIPC and other essential oils
Assay type: in vivo, potato
Details: emulsifiable liquid solution applied in line to washed potatoes or by immersion in dilute aqueous solution, after storage, at ambient temperature

## C=CCc1ccc(O)c(OC)c1 [eugenol]
  prevention of germination and burning of nascent sprouts: more effectively than the CIPC-based formulation or other essential oils
